Calls of active or inactive are those of the source. No cut-off for these calls is given here.
Tests used:
[1] = test system: Human immunodeficiency virus 2; test: Antiviral activity against HIV2 ROD infected in human CD4+ T-lymphocyte CEM cells assessed as inhibition of virus-induced cytopathicity after 4 to 5 days by microscopic analysis; format: functional, organism-based; conditions: Human immunodeficiency virus 2, ISOLATE ROD, CCRF-CEM
CCRF-CEM = test: Cytotoxicity against human CD4+ T-lymphocyte CEM cells; format: cell-based
[2] = test system: Human immunodeficiency virus 1; test: Antiviral activity against HIV1 3B infected in human CD4+ T-lymphocyte CEM cells assessed as inhibition of virus-induced cytopathicity after 4 to 5 days by microscopic analysis; format: functional, organism-based; conditions: Human immunodeficiency virus 1, 3B, CCRF-CEM
[3] = test system: Human immunodeficiency virus; test: Inhibition of HIV integrase-mediated strand transfer activity using 5'-[gamma-32P]-labeled full length 21T DNA at 50 nM after 2 hrs
[4] = test system: Human immunodeficiency virus 1; test: Binding affinity to recombinant HIV1 3B glycoprotein-120 at 5 uM after 5 mins by sensorchip direct surface plasmon resonance assay in presence of 100 and 400 uM mann (alpha-1,3-1,6)3
[5] = test system: Human immunodeficiency virus 1; test: Binding affinity to recombinant HIV1 3B glycoprotein-120 after 5 mins by sensorchip direct surface plasmon resonance assay
[6] = Inhibition of HIV integrase-mediated 3'-processing activity using 5'-[gamma-32P]-labeled full length 21T DNA after 2 hrs; parameters: species or system Human immunodeficiency virus
[7] = test system: Human immunodeficiency virus 1; test: Binding affinity to recombinant HIV1 3B glycoprotein-120 at 5 uM after 5 mins by sensorchip direct surface plasmon resonance assay in presence of 100 and 400 uM mann (alpha-1,2)3
[8] = Inhibition of HIV integrase-mediated strand transfer activity using precleaved 19T duplex oligonucleotide after 2 hrs; parameters: species or system Human immunodeficiency virus
[9] = test system: Human immunodeficiency virus 1; test: Binding affinity to recombinant HIV1 3B glycoprotein-120 after 5 mins by sensorchip reverse surface plasmon resonance assay

Compound | EC50 [1] [µM] | CC50 (CCRF-CEM) [µM] | EC50 [2] [µM] | also measured
CCc1c(CNC(=O)C2=C[C@H](O)[C@H](O)[C@@H](O)C2)c(CC)c(CNC(=O)C2=C[C@H](O)[C@H](O)[C@@H](O)C2)c(CC)c1CNC(=O)C1=C[C@H](O)[C@H](O)[C@@H](O)C1 | > 250 | > 250 | > 250 | –
C[C@@H]1CCO[C@H]2Cn3cc(C(=O)NCc4ccc(F)cc4F)c(=O)c(O)c3C(=O)N12 | – | – | – | inhibition [3]: > 50%
CN[C@@H]1[C@H](O[C@@H]2OC[C@@H](O)[C@H](O)[C@H]2O)[C@@H](O)[C@H](O[C@H]2c3cc(C)c(C(=O)N[C@H](C)C(=O)O)c(O)c3-c3c(cc4c(c3O)C(=O)c3cc(OC)cc(O)c3C4=O)[C@@H]2O)O[C@@H]1C [PRADIMICIN A] | – | > 50 | 3.4 | –
CCc1c(CNC(=O)c2ccc(O)c(O)c2O)c(CC)c(CNC(=O)c2ccc(O)c(O)c2O)c(CC)c1CNC(=O)c1ccc(O)c(O)c1O | 41 | 144 | 6.3 | Activity [4]: inactive; Activity [5]: Active; IC50 [6]: 31 µM; Activity [7]: inactive; IC50 [8]: 10.9 µM
CCc1c(CNC(=O)c2cc(O)c(O)c(O)c2)c(CC)c(CNC(=O)c2cc(O)c(O)c(O)c2)c(CC)c1CNC(=O)c1cc(O)c(O)c(O)c1 | > 10 | 49 | > 10 | –
CCc1c(CNC(=O)c2ccc(N)cc2)c(CC)c(CNC(=O)c2ccc(N)cc2)c(CC)c1CNC(=O)c1ccc(N)cc1 | > 250 | > 250 | > 250 | –
CCc1c(CNC(=O)C2C[C@H](O)C(O)[C@@H](O)C2)c(CC)c(CNC(=O)C2C[C@H](O)C(O)[C@@H](O)C2)c(CC)c1CNC(=O)C1C[C@H](O)C(O)[C@@H](O)C1 (some centres not stated) | > 250 | > 250 | > 250 | –
CCc1c(CNC(=O)c2ccc(N)nc2)c(CC)c(CNC(=O)c2ccc(N)nc2)c(CC)c1CNC(=O)c1ccc(N)nc1 | > 250 | > 250 | > 250 | –
CCc1c(CNC(=O)c2ccc(O)c(O)c2O)c(CC)c(CNC(=O)[C@H]2C[C@@H](C(=O)NCc3c(CC)c(CNC(=O)c4ccc(O)c(O)c4O)c(CC)c(CNC(=O)c4ccc(O)c(O)c4O)c3CC)C[C@@H](C(=O)NCc3c(CC)c(CNC(=O)c4ccc(O)c(O)c4O)c(CC)c(CNC(=O)c4ccc(O)c(O)c4O)c3CC)C2)c(CC)c1CNC(=O)c1ccc(O)c(O)c1O | > 10 | 25 | > 10 | –
CCc1c(CNC(=O)c2ccc[nH]2)c(CC)c(CNC(=O)c2ccc[nH]2)c(CC)c1CNC(=O)c1ccc[nH]1 | > 10 | > 10 | > 10 | –
CCc1c(CNC(=O)c2cccc(O)c2O)c(CC)c(CNC(=O)c2cccc(O)c2O)c(CC)c1CNC(=O)c1cccc(O)c1O | > 2 | 5 | > 2 | –
CCc1c(CNC(=O)CCc2ccc(O)c(O)c2)c(CC)c(CNC(=O)CCc2ccc(O)c(O)c2)c(CC)c1CNC(=O)CCc1ccc(O)c(O)c1 | > 10 | 22 | > 10 | –
CCc1c(CNCCCCNC(=O)c2ccc(O)c(O)c2O)c(CC)c(CNCCCCNC(=O)c2ccc(O)c(O)c2O)c(CC)c1CNCCCCNC(=O)c1ccc(O)c(O)c1O | > 10 | 25 | > 10 | –
CCc1c(CNCCNC(=O)c2ccc(O)c(O)c2O)c(CC)c(CNCCNC(=O)c2ccc(O)c(O)c2O)c(CC)c1CNCCNC(=O)c1ccc(O)c(O)c1O | > 10 | 117 | > 10 | –
CCc1c(CNC(=O)c2c(O)cc(O)cc2O)c(CC)c(CNC(=O)c2c(O)cc(O)cc2O)c(CC)c1CNC(=O)c1c(O)cc(O)cc1O | > 50 | 112 | > 50 | –
CCc1c(CNC(=O)CCC(=O)NCCCOCCOCCOCCCN)c(CC)c(CNC(=O)c2ccc(O)c(O)c2O)c(CC)c1CNC(=O)c1ccc(O)c(O)c1O | – | – | – | Activity [9]: Active
CCc1c(CNC(=O)c2ccc(O)cc2O)c(CC)c(CNC(=O)c2ccc(O)cc2O)c(CC)c1CNC(=O)c1ccc(O)cc1O | > 4 | 28 | > 4 | –
CN[C@H]1[C@@H](O[C@H]2O[C@@H](CO)[C@H](O)[C@@H](OS(=O)(=O)O)[C@@H]2O)[C@H](O)[C@@H](O[C@H]2c3cc(C)c(C(=O)N[C@H](C)C(=O)O)c(O)c3-c3c(cc4c(c3O)C(=O)c3cc(OC)cc(O)c3C4=O)[C@@H]2O)O[C@H]1C | – | – | – | Activity [5]: Active
CCc1c(CN2CCN(C(=O)c3ccc(O)c(O)c3O)CC2)c(CC)c(CN2CCN(C(=O)c3ccc(O)c(O)c3O)CC2)c(CC)c1CN1CCN(C(=O)c2ccc(O)c(O)c2O)CC1 | > 10 | 36 | > 10 | IC50 [6]: 42 µM; IC50 [8]: 5.6 µM
